Read-outs that look alike come from different tables or passages of the source.
Columns and labels:
Format in all cases: in vivo
[1] = system: Puccinia triticina; Synonym: Puccinia recondite f. sp. tritici; test: Wheat brown rust (PUCCRT) disease control on wheat seedlings; conditions: Puccinia triticina; for pest or weed control at 121.5 g/ha: low volume application, 121.5 g/H
How it was run: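 Yuma wheat grown to first fully emerged leaf was inoculated with Puccinia triticina spore suspension either before or after fungicide treatment, held overnight at 22° C. and 100% RH in darkness, then kept at 24° C. Fungicide applied by booth sprayer to run-off (acetone/water, 110 ppm Triton X-100) or as EC by track spray.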

[2] = system: Uncinula necator; test: Grape powdery mildew (UNCINE) disease control; conditions: Erysiphe necator, 24 h, High volume application, 1 Day Protectant, read-out: UNCINE 1 DP disease control
Method: Technical grades of materials were dissolved in acetone, which were then mixed with nine volumes of water containing 110 ppm Triton X-100. The fungicide solutions were applied onto wheat seedlings using an automated booth sprayer to run-off. All sprayed plants were allowed to air dry prior to further handling. All fungicides were evaluated using the aforementioned method for their activity vs. all target diseases. Wheat leaf blotch and brown rust activity were also evaluated using track spray applications, in which case the fungicides were formulated as EC formulations, containing 0.1% Trycol 5941 in the spray solutions. Grape seedlings (variety Carignane) were grown in soil-less Metro mix, with one plant per pot, and used in the test when approximately one month old. Plants were inoculated 24 hr after fungicide treatment by shaking spores from infected leaves over test plants. Plants were maintained in a greenhouse set at 20° C. until disease was fully developed. Fungicide formulation, application and disease assessment on the sprayed leaves followed the procedures as described in the Example A.

[3] = system: Cercospora beticola; test: Leaf spot of sugar beets (CERCBE) disease control; conditions: 24 h, 1 Day Protectant, high volume, read-out: Disease Control CERCBE 1 DP
Method: Technical grades of materials were dissolved in acetone, which were then mixed with nine volumes of water containing 110 ppm Triton X-100. The fungicide solutions were applied onto wheat seedlings using an automated booth sprayer to run-off. All sprayed plants were allowed to air dry prior to further handling. All fungicides were evaluated using the aforementioned method for their activity vs. all target diseases. Wheat leaf blotch and brown rust activity were also evaluated using track spray applications, in which case the fungicides were formulated as EC formulations, containing 0.1% Trycol 5941 in the spray solutions. Sugar beet plants (variety HH88) were grown in soil-less Metro mix and trimmed regularly to maintain a uniform plant size prior to test. Plants were inoculated with a spore suspension 24 hr after fungicide treatments. Inoculated plants were kept in a dew chamber at 22° C. for 48 hr then incubated in a greenhouse set at 24° C. under a clear plastic hood with bottom ventilation until disease symptoms were fully expressed. Fungicide formulation, application and disease assessment on the sprayed leaves followed the procedures as described in the Example A.

[4] = system: Blumeria graminis f. sp. tritici; Synonym: Erysiphe graminis f. sp. tritici; test: Wheat powdery mildew (ERYSGT) disease control; conditions: 24 h, 1 Day Protectant, high volume, read-out: Disease Control ERYSGT 1 DP
Method: Technical grades of materials were dissolved in acetone, which were then mixed with nine volumes of water containing 110 ppm Triton X-100. The fungicide solutions were applied onto wheat seedlings using an automated booth sprayer to run-off. All sprayed plants were allowed to air dry prior to further handling. All fungicides were evaluated using the aforementioned method for their activity vs. all target diseases. Wheat leaf blotch and brown rust activity were also evaluated using track spray applications, in which case the fungicides were formulated as EC formulations, containing 0.1% Trycol 5941 in the spray solutions. Wheat plants (variety Yuma) were grown from seed in a greenhouse in 50% mineral soil/50% soil-less Metro mix until the first leaf was fully emerged, with 7-10 seedlings per pot. These plants were inoculated by dusting with infected stock plants 24 hr after fungicide treatments. After inoculation the plants were kept in a greenhouse set at 20° C. for disease to develop. Fungicide formulation, application and disease assessment on the sprayed leaves followed the procedures as described in the Example A.

[5] = system: Blumeria graminis f. sp. hordei; Synonym: Erysiphe graminis f. sp. hordei; test: Barley powdery mildew (ERYSGH) disease control; conditions: 24 h, 1 Day Protectant, high volume, read-out: Disease Control ERYSGH 1 DP
Method: (§1) Technical grades of materials were dissolved in acetone, which were then mixed with nine volumes of water containing 110 ppm Triton X-100. The fungicide solutions were applied onto wheat seedlings using an automated booth sprayer to run-off. All sprayed plants were allowed to air dry prior to further handling. All fungicides were evaluated using the aforementioned method for their activity vs. all target diseases. Wheat leaf blotch and brown rust activity were also evaluated using track spray applications, in which case the fungicides were formulated as EC formulations, containing 0.1% Trycol 5941 in the spray solutions. Barley seedlings (variety Harrington) were propagated in soil-less Metro mix, with each pot having 8 to 12 plants, and used in the test when first leaf was fully emerged. Test plants were inoculated by dusting with infected stock plants 24 hr after fungicide treatments. After inoculation the plants were kept in a greenhouse set at 20° C. for disease to develop. Fungicide formulation, application and disease assessment on the sprayed leaves followed the procedures as described in the Example A.

[6] = system: Rhyncosporium secalis; test: Barley scald (RHYNSE) disease control; conditions: 24 h, High volume application, 1 Day Protectant, read-out: RHYNSE 1 DP disease control
Method: as §1, with “inoculated by an aqueous spore suspension of Rhyncosporium secalis 24 hr” for “inoculated by dusting with infected stock plants 24 hr”, “kept in a dew room at 20° C. with 100% relative humidity for 48 hr. The plants were then transferred to a greenhouse” for “kept in a greenhouse”

[7] = 24 h, High volume application, 1 Day Protectant, read-out: PUCCRT 1DP disease control
[8] = 72 h, High volume application, 3 Day Curative, read-out: PUCCRT 3DC disease control
[9] = 24 h, Wheat Brown Rust, 1 Day Protectant, high volume application, read-out: Disease Control PUCCRT 1 DP 100 ppm
[10] = 24 h, Wheat Brown Rust, 1 Day Protectant, read-out: Disease Control PUCCRT 1 DP 121.5 g/H
[11] = 72 h, Wheat Brown Rust, 3 Day Curative, high volume application, read-out: Disease Control PUCCRT 3 DC 100 ppm
[12] = 72 h, Wheat Brown Rust, 3 Day Curative, read-out: Disease Control PUCCRT 3 DC 121.5 g/H

Row | Compound | pest or weed control at 100 ppm [1, 7] [%] | pest or weed control at 100 ppm [1, 8] [%] | pest or weed control at 100 ppm [2] [%] | pest or weed control at 100 ppm [3] [%] | pest or weed control at 100 ppm [4] [%] | pest or weed control at 100 ppm [5] [%] | pest or weed control at 100 ppm [6] [%] | pest or weed control at 100 ppm [1, 9] [%] | pest or weed control at 121.5 g/ha [1, 10] [%] | pest or weed control at 100 ppm [1, 11] [%] | pest or weed control at 121.5 g/ha [1, 12] [%]
1 | COc1ccnc(C(=O)N[C@H]2CCC[C@H](OCC(C)C)[C@@H](Oc3ccccc3)[C@H](C)OC2=O)c1OCOC(C)=O [F26] | 80 to 100 | 80 to 100 | 0 to 80 | 80 to 100 | 0 to 80 |  |  |  |  |  | 
2 | COc1ccnc(C(=O)N[C@H]2CCC[C@H](Oc3ccccc3)[C@@H](OCCCc3ccccc3)[C@H](C)OC2=O)c1OCOC(C)=O [F130] | 80 to 100 | 80 to 100 | 0 to 80 | 80 to 100 |  | 0 to 80 | 80 to 100 |  |  |  | 
3 | CCCO[C@H]1CCC[C@H](NC(=O)c2nccc(OC)c2OCOC(C)=O)C(=O)O[C@@H](C)[C@@H]1OC1CCCC1 [F155] | 80 to 100 | 80 to 100 | 0 to 80 | 80 to 100 |  | 80 to 100 | 0 to 80 |  |  |  | 
4 | COc1ccnc(C(=O)N[C@H]2CCC[C@H](Oc3ccccc3)[C@@H](OC(=O)C3CC3)[C@H](C)OC2=O)c1OC(C)=O [F242] |  |  | 0 to 80 | 80 to 100 |  | 0 to 80 | < 0 | 80 to 100 | 80 to 100 | 80 to 100 | 0 to 80
5 | COc1ccnc(C(=O)N[C@H]2CCC[C@H](Oc3ccccc3)[C@@H](OC(=O)C3CC3)[C@H](C)OC2=O)c1OCOC(=O)C(C)C [F241] |  |  | 0 to 80 | 80 to 100 |  | 0 to 80 | 0 to 80 | 80 to 100 | 80 to 100 | 80 to 100 | 80 to 100
6 | C=C(C)CO[C@H]1CCC[C@H](NC(=O)c2nccc(OC)c2OCOC(=O)C(C)C)C(=O)O[C@@H](C)[C@@H]1OC [F253] |  |  | 0 to 80 | < 0 |  | 0 to 80 | 0 to 80 |  | 80 to 100 |  | 80 to 100
7 | COc1ccnc(C(=O)N[C@H]2CCC[C@H](OC3CCCC3)[C@@H](OCCCc3ccccc3)[C@H](C)OC2=O)c1OCOC(C)=O [F165] | 80 to 100 | 80 to 100 | 0 to 80 | 80 to 100 |  | 0 to 80 | 80 to 100 |  |  |  | 
